Measurements as given in patent publication US11612576B2 (Thiogenesis Therapeutics, Inc., priority 2017, dated 2023).
Where a name gives a salt, the structure may show the parent alone. Read-outs that look alike come from different tables or passages of the source. One block for each compound: values may come before it.

Legend:
[1] = in vivo; cited from earlier work
[2] = Physical characteristics of TTI-0102 salt forms; type: physicochemical; settings: compared with free base
Method: TTI-0102 was prepared as in Example 14. The crude product was obtained by evaporation of water and DMF. The residue was suspended in ethyl acetate/water; precipitated dicyclohexylurea (DCU) was filtered off. The solution was evaporated and suspended in methanol. The precipitate (unreacted pantothenic acid) was filtered off. The filtrate was concentrated and then dissolved in a small volume of methanol. After addition of dichloromethane the cystamine hydrochloride precipitated and was filtered off. After evaporation of solvent, the residue was crystallized from methanol:acetone (1:10) to provide TTI-1 hydrochloride.
The tartrate salt was formed and crystallized from a MeOH:DCM mixture. The solid form was filtered off (precipitate) and filtrate was evaporated.

[3] = Cysteamine and pantetheine in rat gastrointestinal contents six hours after dosing (Example 13); type: in vivo, Sprague-Dawley rats
Method: In addition to the plasma samples, gastrointestinal contents (stomach contents, proximal small intestinal contents, distal small intestinal contents and cecum/colon contents) were obtained from rats at the end of the study (6 hours after dosing) and snap frozen. Tissue levels of cysteamine and pantetheine were measured in the gastrointestinal contents. The protocol for tissue analysis entailed (i) smashing frozen tissue fragments over dry ice to obtain small pieces; (ii) weighing several frozen tissue pieces (˜[…]) into a tared 1.5 ml microcentrifuge tube with two metal ball bearings and immediately storing on dry ice; (iii) homogenizing tissue fragments cryogenically using a Retsch Cryomill at 250 hertz for 5 minutes; (iv) thawing each sample on ice, adding two volumes of water (w:v., i.e. 2 microliters of water were added for each milligram of homogenized tissue) to make an approximately 1:3 dilution; (v) removing 20 ul of the resuspended tissue powder to a new tube, adding 2.2 ul of 50 mM TCEP (5 mM final concentration) and incubating for 45 minutes at 37 degrees C. (TCEP treated samples), or adding 2.2 ul of deioinized water in place of TCEP (no TCEP samples); (vi) adding 3.5 volumes of acetonitrile:0.1% formic acid, vortex mixing for 15 seconds, and then pelleting precipitated protein by centrifugation for 10 minutes at 14,000 rpm in a microcentrifuge at 4 degrees C.; (vii) transferring 25 ul of supernatant to a new tube containing 75 ul of ACN/0.1% FA; (vii) injecting samples on the LC-MS apparatus described above, using the same column and run conditions as for plasma samples.

[4] = Dissolution of the dose in saline before gavage; type: physicochemical; settings: 120 mg/kg dose (311.68 mg/kg compound 2) in 3 milliliters of saline
[5] = target: T1, tissue transglutaminase (transglutaminase 2, TG2) (Homo sapiens, UniProt P21980); settings: cited from earlier work
T1 sequence (P21980 1-687): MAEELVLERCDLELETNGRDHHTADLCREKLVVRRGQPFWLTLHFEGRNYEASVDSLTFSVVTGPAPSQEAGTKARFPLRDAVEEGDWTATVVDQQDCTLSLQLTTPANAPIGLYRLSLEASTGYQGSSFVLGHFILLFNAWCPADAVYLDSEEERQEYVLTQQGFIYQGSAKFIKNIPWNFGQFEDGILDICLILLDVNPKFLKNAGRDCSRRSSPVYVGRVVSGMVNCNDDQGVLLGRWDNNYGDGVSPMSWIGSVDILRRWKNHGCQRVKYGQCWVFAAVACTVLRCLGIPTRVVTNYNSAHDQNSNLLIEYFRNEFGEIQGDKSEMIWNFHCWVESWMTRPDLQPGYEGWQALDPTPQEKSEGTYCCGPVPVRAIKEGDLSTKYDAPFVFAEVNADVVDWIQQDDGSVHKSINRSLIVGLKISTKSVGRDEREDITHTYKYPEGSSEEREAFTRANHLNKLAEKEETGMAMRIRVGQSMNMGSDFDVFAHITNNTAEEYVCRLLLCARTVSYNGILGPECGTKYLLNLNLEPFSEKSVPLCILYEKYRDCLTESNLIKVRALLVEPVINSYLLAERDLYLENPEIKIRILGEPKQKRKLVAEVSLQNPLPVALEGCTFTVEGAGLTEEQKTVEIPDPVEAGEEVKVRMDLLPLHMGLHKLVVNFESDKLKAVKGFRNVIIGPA

mouse models of HD = settings: cited from earlier work
[6] = Rat pharmacokinetic study of compound 2: plasma cysteamine after gavage; type: in vivo, Sprague-Dawley rats; settings: cysteamine HCl, 30 mg/kg cysteamine base
Method: The compound 2 doses were prepared for 250 gram rats, but the actual masses of the rats at the time of drug administration varied from 267-300 grams, so the actual doses, normalized to body weight, ranged from 26.1-27.1 mg/kg in group 1, 51.7-56.2 mg/kg in group 2 and 108.3-109.5 mg/kg in group 3. Nonetheless, for convenience those doses are referred to as 30, 60 and 120 mg/kg.
Plasma was obtained from blood by centrifugation and snap frozen.

[7] = rat, in vivo
Method: Thus in the discussion below, and in the accompanying figures, a “30 mg/kg” dose of TTI-0102 means 68.73 mg/kg was administered, a “60 mg/kg” dose of TTI-0102 means 137.46 mg/kg was administered and a “100 mg/kg” dose of TTI-0602 (aka compound 2) means 229.1 mg/kg was administered.
Each of the four compounds was administered via gavage to three male Sprague-Dawley rats weighing approximately 300 grams. All doses were dissolved in 2.5 milliliters of saline.
Blood samples were obtained from rats immediately after dosing (within one minute) and 10, 20, 30, 45, 60, 90, 120, 180, 240, 300 and 360 minutes after dosing via carotid artery catheters surgically implanted before the PK study. Plasma was obtained from blood by centrifugation, snap frozen and stored at −80 degrees Celsius. Several days later plasma samples were thawed on ice and each aliquoted to two paired tubes (20 μL per tube), one of which was processed for measurement of thiols (after quantitative disulfide bond reduction), while the other was processed for analysis of disulfides.
Briefly, 2.2 ul of freshly prepared 50 mM TCEP stock solution was added to 20 ul of plasma and the sample incubated at 37 degrees C. for 45 minutes. The volume of plasma in the paired (non-reduced) sample was adjusted by adding 2.2 ul of deionized water.
After the TCEP reduction step all plasma samples were deproteinized by adding 3.5 volumes of ice cold acetonitrile (ACN)/1% formic acid (FA) solution containing internal standards (77 μL of ACN/1% FA solution was added to 22.2 μL of plasma).
The denatured protein was pelleted by centrifugation at 14,000 rpm for 10 minutes at 4 degrees C. in a microcentrifuge. The supernatant (25 ul) was removed to a new tube, mixed with 75 ul of ACN/0.1% FA solution and injected directly into a 150×2 mm Atlantis hydrophilic interaction liquid chromatography (HILIC) column (Waters; Milford, Mass.). Metabolites were analyzed using a Nexera X2 U-HPLC (Shimadzu) and a Q-Exactive hybrid quadrupole Orbitrap mass spectrometer (Thermo Fisher Scientific). […]

[8] = cited from earlier work
[9] = tested on: CYP1A2, CYP2B6, CYP2C8, CYP2C9, CYP2C19, CYP2D6, CYP2E1, CYP2A6, CYP3A4; settings: in vitro; cited from earlier work
[10] = tested on: CYP1A2, CYP2A6, CYP2B6, CYP2C8, CYP2C9, CYP2C19, CYP2D6, CYP2E1 and CYP3A4; settings: in vitro; cited from earlier work
[11] = tested on: P-gp, OCT2, BCRP, OATP1B1, OATP1B3, OAT1, OAT3, OCT1; settings: in vitro; cited from earlier work
[12] = tested on: matrix metalloproteinases (MMPs); settings: high concentrations (e.g. 25 millimolar); cited from earlier work
Plasmodium Falciparum = settings: in vitro and in mouse models of malaria; cited from earlier work
Pseudomonas aeruginosa = settings: cited from earlier work
kidney fibrosis = settings: ureteral stenosis and renal ischemia/reperfusion injury; cited from earlier work
[13] = tested on: erythrocytes from sickle cell anemia patients; settings: cited from earlier work
xenograft models = settings: cited from earlier work

Compound: CC(C)(COP(=O)(O)O)[C@@H](O)C(=O)NCCC(=O)NCCS [4-phosphopantetheine]
half life in blood [1]: over 3 hours

stability of salt form [2]: more stable than the free base
Compound: CC(C)(CO)[C@@H](O)C(=O)NCCC(=O)NCCSSCCN [acetate salt of TTI-0102]

fraction of small intestinal pantetheine in the form of the thiol ([3]; compound 1 100 mg/kg, no TCEP vs TCEP samples): about half | pantetheine at all levels of the gastrointestinal tract (stomach, proximal and distal small intestine, colon) ([3]; compound 1 100 mg/kg, six hours after dosing): high levels of pantetheine are present
Compound: CC(C)(CO)[C@@H](O)C(=O)NCCC(=O)NCCSSCCN [compound 1, cysteamine-(R)-pantetheine disulfide]
colon contents (TCEP reduced) ([3]; compound 1, six hours after dosing): high concentrations of both cysteamine and pantetheine

dissolution of dose in saline [4]: did not completely dissolve in saline
Compound: CC(=O)NCCSSCCNC(=O)CCNC(=O)[C@H](O)C(C)(C)CO [compound 2, N-acetylcysteamine-(R)-pantetheine disulfide]

Compound: NCCSSCCN [cystamine]
inhibition of tissue transglutaminase (TG2) [5]: TG2 inhibitor | effects in several mouse models of Huntington's disease (mouse models of HD; mouse, in vivo): improves motor function and extends life-span

Compound: Cl.NCCS [cysteamine HCl, cysteamine hydrochloride]
peak plasma cysteamine concentration [6]: over 200 uM | time by which cysteamine concentration declined to less than half maximal [6]: ≤ 90 min | time in which half of the dose is absorbed [7]: one | time of peak observed concentration after gavage [7]: 10 min | Cmax ([7]; 30 mg/kg): ~55.3 µM

Compound: NCCS [cysteamine bitartrate]
Cmax ([8]; read-out: C max of cysteamine, cysteamine bitartrate 20 mg/kg cysteamine base equivalent): 81.9 µM

Compound: NCCS.O=C(O)C(O)C(O)C(=O)O (stereo not shown) [cysteamine bitartrate]
fraction of cysteamine eliminated by 150 minutes (inferred) ([8]; cysteamine bitartrate 20 mg/kg): over 95% | time by which cysteamine levels returned to baseline ([8]; cysteamine bitartrate 20 mg/kg): ≤ 2 h | tissue half life of cysteamine ([8]; cysteamine bitartrate 20 mg/kg): 25 to 29 min

Compound: NCCS [cysteamine, 2-aminoethanethiol]
half life in blood [1]: about 25 minutes | metabolism by CYP1A2, CYP2B6, CYP2C8, CYP2C9, CYP2C19, CYP2D6 and CYP2E1 [9]: likely to be metabolized by multiple CYP enzymes | metabolism by CYP2A6 or CYP3A4 [9]: not by CYP2A6 or CYP3A4 | inhibition of CYP1A2, CYP2A6, CYP2B6, CYP2C8, CYP2C9, CYP2C19, CYP2D6, CYP2E1 and CYP3A4 [10]: not an inhibitor | substrate of BCRP, OATP1B1, OATP1B3, OAT1, OAT3 and OCT1 [11]: not a substrate | substrate of P-gp and OCT2 [11]: is a substrate | inhibition of tissue transglutaminase (TG2) [5]: inhibits | inhibition of matrix metalloproteinases [12]: inhibits | proliferation of Plasmodium Falciparum (Plasmodium Falciparum): inhibits proliferation | activity against Pseudomonas aeruginosa and other CF pathogens (Pseudomonas aeruginosa): bactericidal | efficacy in mouse models of kidney fibrosis (kidney fibrosis): effective | sickling under hypoxic conditions [13]: marked inhibition of sickling | survival of mice (xenograft models): prolonged survival of mice in a dose-dependent manner without toxicity | beneficial effects in R6/2 HD mouse model (mouse models of HD; R6/2 mouse model): amelioration of weight loss and motor abnormalities, and prolongation of survival
